Measurements from ChEMBL document CHEMBL1201862, “PubChem BioAssay data set” (2004).
The source made the active and inactive calls.

How the values were obtained:
[1] = target: T1, Fatty acid synthase (Homo sapiens, UniProt P49327); assay: inhibition of human FAS-TE enzyme activity – biochemical, endpoint fluorescence intensity, uHTS hits, dose response (AID 624327); assay type: functional;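 also: fluorescence from hydrolysis of an O-methyl fluorescein acyl ester substrate by the enzyme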
[2] = target: T1, Fatty acid synthase; assay: inhibition of human FAS-TE enzyme activity – biochemical, kinetic fluorescence intensity, dose response (AID 624326); assay type: functional;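 also: rate of fluorescence rise from hydrolysis of a fluorogenic O-methyl fluorescein ester substrate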
[3] = target: T2, Estrogen receptor (Homo sapiens, UniProt P03372);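 also: potency for inhibiting coactivator peptide recruitment to the receptor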
T2 sequence (P03372 whole entry): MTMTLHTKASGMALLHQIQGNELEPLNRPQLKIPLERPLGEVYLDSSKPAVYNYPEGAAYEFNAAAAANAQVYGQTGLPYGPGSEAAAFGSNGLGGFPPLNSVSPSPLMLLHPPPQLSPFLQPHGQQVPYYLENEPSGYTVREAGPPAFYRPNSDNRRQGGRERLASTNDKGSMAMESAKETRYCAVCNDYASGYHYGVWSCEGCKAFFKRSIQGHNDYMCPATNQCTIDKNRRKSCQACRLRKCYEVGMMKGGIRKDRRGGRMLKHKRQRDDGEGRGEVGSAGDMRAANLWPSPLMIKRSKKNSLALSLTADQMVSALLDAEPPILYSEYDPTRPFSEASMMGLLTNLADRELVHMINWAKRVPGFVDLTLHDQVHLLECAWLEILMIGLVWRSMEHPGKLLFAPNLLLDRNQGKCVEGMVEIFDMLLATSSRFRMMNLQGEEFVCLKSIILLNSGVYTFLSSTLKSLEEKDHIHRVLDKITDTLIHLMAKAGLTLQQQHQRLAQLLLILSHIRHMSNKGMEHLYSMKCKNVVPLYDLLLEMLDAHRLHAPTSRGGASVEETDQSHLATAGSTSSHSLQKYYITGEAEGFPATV

[4] = cells
[5] = Trypanosoma cruzi growth suppression in host cells – NIH3T3 host cells, beta-gal luminescence, confirmation (AID 2044); assay type: functional, cell-based;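 also: intracellular parasites grown in NIH/3T3 mouse fibroblasts as host cells; luminescent beta-galactosidase reporter signal from transgenic T. cruzi replicating inside host cells; inhibitors lower the luminescence signal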
[6] = NIH3T3 cell viability loss – ATP luminescence, mouse fibroblasts, counter-screen, dose response (AID 2010); assay type: functional, cell-based;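 also: cells exposed to compound for about 90 hours before reading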
[7] = target: Cytochrome P450 2C9 (Homo sapiens, UniProt P11712)
[8] = tested on: INS1; assay: INS-1E survival protection against cytokine death – cell-based, luminescence, retest, dose response (AID 449756); assay type: functional; settings: Rattus norvegicus, INS1;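 also: cell death triggered by IL-1 beta plus TNF-alpha plus IFN-gamma mixture; protective hits raise ATP signal compared with cytokine alone wells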
[9] = target: T3, DNA repair and recombination protein RAD54-like (Homo sapiens, UniProt Q92698); assay: RAD54 Holliday junction migration blockers – biochemical, fluorescence, cherry-picked samples, dose series, confirmation (AID 651657); assay type: functional
T3 sequence (Q92698 whole entry): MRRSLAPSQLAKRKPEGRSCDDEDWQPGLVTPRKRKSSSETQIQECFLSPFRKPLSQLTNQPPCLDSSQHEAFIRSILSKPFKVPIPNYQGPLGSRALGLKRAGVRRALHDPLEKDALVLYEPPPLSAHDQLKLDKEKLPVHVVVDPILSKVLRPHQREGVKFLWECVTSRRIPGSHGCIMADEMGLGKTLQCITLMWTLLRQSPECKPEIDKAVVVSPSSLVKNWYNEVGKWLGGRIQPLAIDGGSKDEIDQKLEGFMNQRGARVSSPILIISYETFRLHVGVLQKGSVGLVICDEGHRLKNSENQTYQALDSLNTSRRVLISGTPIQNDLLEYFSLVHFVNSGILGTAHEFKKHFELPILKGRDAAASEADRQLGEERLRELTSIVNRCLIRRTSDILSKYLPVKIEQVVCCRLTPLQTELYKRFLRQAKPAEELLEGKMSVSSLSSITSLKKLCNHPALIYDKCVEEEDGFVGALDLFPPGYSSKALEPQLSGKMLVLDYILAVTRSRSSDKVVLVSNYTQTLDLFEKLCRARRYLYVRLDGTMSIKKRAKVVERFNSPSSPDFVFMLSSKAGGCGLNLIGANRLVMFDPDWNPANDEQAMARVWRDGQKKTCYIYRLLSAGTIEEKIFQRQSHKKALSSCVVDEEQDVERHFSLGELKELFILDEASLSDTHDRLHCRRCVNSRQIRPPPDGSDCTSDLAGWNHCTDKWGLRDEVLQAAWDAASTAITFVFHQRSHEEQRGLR

[10] = target: T4, RNA-binding protein pos-1 (Caenorhabditis elegans, UniProt G5EF15); assay: disruptors of C. elegans POS-1 RNA interaction – biochemical, fluorescence polarization, dose response (AID 1964);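 also: purified POS-1 fused to maltose binding protein made in E. coli; potency of compounds blocking POS-1 binding to fluorescent RNA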
T4 sequence (G5EF15 whole entry): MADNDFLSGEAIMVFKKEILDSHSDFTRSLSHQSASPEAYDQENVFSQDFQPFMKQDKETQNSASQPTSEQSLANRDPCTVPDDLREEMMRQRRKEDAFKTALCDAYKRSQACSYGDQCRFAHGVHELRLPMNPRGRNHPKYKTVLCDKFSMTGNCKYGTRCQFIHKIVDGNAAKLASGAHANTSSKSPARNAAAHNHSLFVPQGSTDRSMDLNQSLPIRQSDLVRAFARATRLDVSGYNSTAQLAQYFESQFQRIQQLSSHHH

[11] = target: T5, Zinc finger protein mex-5 (Caenorhabditis elegans, UniProt Q9XUB2); assay: potency of MEX-5 RNA-binding blockers – biochemical, C. elegans, fluorescence polarization, dose response (AID 1960)
T5 sequence (Q9XUB2 whole entry): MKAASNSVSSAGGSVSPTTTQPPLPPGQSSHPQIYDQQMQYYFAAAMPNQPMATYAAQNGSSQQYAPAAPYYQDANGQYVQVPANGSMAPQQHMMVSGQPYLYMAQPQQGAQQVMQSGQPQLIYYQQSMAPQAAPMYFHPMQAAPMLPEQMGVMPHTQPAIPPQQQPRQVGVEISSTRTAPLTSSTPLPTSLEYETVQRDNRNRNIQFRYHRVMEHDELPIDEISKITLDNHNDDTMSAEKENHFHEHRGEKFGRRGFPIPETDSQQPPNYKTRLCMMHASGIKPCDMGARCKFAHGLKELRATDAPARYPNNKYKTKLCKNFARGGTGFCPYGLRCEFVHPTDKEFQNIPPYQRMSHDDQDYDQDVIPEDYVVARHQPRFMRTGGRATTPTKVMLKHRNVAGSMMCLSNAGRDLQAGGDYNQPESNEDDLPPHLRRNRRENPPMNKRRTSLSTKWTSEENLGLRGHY

[12] = target: Genome polyprotein (dengue virus type 2, UniProt P29990); assay: flavivirus cap methylation enzyme inhibition – biochemical, confirmation dose response, primary screen (AID 588689); assay type: functional
[13] = target: T6, Mannose-6-phosphate isomerase (Homo sapiens, UniProt P34949); assay: phosphomannose isomerase inhibition – biochemical, fluorescence intensity, confirmation (AID 1535)
T6 sequence (P34949 whole entry): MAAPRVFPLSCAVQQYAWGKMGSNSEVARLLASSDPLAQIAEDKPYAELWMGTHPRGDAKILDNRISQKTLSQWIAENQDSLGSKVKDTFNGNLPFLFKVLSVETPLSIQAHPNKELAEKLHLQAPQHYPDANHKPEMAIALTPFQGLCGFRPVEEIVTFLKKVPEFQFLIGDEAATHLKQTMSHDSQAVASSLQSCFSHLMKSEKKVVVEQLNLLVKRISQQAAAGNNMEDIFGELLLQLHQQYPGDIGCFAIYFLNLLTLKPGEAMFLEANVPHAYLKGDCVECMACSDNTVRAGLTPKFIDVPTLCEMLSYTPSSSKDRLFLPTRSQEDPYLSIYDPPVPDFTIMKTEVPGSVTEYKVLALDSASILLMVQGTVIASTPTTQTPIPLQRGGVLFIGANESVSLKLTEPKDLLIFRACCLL

[14] = target: T7, Phosphomannomutase 2 (Homo sapiens, UniProt O15305); assay: Counter screen SAR assay for PMM2 inhibitors via a fluorescence intensity assay. [Related pubchem assays (depositor defined):AID1545, AID1574]
T7 sequence (O15305 whole entry): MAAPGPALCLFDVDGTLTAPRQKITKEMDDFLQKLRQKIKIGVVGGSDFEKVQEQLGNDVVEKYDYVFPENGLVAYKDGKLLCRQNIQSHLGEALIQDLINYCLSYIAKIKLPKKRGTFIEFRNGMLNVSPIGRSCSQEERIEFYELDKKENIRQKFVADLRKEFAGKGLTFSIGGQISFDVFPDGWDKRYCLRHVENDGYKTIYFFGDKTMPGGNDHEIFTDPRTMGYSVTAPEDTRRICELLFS

[15] = target: T8, Adenosylmethionine-8-amino-7-oxononanoate aminotransferase (Mycobacterium tuberculosis, UniProt P9WQ81); assay: Mycobacterium tuberculosis BioA enzyme inhibitor Measured in Biochemical System Using Plate Reader - 2163-02_Inhibitor_Dose_CherryPick_Activity.; assay type: functional, Mycobacterium tuberculosis UT205
T8 sequence (P9WQ81 whole entry): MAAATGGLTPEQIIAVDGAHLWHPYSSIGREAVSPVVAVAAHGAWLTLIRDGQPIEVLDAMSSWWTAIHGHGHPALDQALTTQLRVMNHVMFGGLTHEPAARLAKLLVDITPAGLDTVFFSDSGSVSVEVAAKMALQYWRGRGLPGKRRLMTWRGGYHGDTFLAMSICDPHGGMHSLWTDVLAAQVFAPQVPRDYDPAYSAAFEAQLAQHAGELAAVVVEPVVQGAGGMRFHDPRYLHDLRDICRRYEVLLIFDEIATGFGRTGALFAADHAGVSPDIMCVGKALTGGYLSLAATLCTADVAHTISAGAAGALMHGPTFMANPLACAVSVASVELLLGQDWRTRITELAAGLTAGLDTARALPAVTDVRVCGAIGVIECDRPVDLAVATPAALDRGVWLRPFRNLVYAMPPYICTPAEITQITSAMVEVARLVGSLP

[16] = intracellular Trypanosoma cruzi inhibitors in host cells – cell-based, plate reader, cherry-pick samples, set 3, dose response (AID 651818); assay type: functional;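 also: compounds incubated with infected cells for about four days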
[17] = P. falciparum Dd2 growth inhibitors, dose response, SYBR Green, cherry-picked samples (AID 1159567); assay type: functional, cell-based

T1 sequence (P49327 whole entry): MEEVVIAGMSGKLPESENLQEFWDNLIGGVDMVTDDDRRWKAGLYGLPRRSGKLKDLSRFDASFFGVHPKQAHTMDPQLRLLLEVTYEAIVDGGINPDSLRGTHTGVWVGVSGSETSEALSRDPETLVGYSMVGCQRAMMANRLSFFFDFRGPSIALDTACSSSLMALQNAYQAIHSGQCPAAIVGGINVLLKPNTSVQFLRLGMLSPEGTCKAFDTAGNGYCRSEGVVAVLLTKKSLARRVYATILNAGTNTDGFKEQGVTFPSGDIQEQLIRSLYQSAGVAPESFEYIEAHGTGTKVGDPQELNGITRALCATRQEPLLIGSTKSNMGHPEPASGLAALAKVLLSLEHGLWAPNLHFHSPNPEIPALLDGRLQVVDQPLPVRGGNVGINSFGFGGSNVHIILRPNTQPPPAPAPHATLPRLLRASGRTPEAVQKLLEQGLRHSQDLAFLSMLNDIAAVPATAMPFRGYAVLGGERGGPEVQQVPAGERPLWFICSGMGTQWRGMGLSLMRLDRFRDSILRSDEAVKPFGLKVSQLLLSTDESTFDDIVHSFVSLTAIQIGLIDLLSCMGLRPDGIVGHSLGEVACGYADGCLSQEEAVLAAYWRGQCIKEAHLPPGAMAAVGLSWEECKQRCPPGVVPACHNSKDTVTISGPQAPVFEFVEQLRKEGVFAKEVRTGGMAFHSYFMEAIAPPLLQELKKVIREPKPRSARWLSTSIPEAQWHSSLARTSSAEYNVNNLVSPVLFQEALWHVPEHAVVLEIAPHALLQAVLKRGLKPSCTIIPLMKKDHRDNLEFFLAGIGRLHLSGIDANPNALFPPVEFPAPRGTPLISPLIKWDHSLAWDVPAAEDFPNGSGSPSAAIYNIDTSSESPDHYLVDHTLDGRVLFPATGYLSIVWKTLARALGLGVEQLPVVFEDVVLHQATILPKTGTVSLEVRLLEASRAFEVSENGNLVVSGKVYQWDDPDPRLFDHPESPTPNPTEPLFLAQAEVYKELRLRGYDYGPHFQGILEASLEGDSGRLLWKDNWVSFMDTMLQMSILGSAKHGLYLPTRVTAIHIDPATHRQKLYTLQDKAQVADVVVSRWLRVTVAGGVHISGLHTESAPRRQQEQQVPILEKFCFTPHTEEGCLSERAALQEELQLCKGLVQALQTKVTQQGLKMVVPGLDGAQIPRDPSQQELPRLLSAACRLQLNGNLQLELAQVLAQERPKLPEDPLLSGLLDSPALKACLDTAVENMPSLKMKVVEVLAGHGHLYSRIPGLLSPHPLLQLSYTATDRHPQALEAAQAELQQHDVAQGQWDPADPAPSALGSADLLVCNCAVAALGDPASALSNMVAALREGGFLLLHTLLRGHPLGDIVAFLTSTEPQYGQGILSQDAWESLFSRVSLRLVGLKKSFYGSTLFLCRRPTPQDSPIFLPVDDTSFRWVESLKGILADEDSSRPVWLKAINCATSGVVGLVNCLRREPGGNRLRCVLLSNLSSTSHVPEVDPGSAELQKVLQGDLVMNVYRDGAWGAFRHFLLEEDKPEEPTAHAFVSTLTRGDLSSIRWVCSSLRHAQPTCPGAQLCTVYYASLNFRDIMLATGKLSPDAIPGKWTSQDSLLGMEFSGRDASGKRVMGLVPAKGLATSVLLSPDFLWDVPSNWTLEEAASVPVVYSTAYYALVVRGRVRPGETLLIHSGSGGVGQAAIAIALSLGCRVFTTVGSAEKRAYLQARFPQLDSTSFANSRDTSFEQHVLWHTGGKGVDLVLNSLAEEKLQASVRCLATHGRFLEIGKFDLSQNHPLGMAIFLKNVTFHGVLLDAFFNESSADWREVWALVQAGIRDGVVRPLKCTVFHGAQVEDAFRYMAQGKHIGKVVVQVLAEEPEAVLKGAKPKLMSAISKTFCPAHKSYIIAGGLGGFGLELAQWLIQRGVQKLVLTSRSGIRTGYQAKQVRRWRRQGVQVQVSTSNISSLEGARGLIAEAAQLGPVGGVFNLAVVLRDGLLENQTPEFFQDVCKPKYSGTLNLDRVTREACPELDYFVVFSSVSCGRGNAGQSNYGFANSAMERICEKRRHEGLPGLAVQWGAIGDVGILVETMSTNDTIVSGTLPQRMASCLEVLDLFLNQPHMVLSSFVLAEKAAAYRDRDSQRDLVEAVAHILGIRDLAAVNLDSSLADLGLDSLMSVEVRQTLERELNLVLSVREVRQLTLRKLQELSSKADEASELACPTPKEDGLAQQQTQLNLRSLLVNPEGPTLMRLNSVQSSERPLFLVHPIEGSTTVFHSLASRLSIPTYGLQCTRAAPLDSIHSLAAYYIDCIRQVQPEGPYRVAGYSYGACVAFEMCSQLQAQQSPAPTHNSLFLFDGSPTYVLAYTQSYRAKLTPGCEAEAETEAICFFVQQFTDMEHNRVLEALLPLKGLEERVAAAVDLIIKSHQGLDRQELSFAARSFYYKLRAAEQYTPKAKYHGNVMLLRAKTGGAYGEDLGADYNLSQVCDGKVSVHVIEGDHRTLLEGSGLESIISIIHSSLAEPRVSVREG
Chain of Genome polyprotein (P29990 2492-3391 limits assumed): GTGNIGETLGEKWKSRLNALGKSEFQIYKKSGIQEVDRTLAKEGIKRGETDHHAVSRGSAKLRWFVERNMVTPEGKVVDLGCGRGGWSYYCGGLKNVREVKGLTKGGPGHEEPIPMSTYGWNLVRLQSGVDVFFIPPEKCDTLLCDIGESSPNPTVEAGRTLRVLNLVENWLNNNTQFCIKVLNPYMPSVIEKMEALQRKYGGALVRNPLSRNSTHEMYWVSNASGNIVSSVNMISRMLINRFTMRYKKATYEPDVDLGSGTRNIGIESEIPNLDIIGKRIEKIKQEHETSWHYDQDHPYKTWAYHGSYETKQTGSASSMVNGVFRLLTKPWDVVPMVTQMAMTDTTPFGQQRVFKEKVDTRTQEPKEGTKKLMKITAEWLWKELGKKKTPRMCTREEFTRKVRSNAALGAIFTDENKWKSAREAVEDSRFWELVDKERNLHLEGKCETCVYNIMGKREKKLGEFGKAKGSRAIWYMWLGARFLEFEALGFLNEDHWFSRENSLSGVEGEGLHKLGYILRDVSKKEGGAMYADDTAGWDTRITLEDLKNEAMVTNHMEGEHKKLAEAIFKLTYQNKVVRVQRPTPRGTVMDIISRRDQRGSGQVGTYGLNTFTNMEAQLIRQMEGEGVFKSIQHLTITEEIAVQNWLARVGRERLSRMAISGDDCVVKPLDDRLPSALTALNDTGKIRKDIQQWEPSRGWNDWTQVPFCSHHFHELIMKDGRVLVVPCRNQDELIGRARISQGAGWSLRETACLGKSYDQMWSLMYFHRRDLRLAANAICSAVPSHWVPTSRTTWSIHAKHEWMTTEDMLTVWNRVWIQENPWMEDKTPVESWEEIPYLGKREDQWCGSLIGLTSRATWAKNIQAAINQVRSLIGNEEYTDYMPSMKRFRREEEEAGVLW
Chain of Cytochrome P450 2C9 (P11712 whole entry): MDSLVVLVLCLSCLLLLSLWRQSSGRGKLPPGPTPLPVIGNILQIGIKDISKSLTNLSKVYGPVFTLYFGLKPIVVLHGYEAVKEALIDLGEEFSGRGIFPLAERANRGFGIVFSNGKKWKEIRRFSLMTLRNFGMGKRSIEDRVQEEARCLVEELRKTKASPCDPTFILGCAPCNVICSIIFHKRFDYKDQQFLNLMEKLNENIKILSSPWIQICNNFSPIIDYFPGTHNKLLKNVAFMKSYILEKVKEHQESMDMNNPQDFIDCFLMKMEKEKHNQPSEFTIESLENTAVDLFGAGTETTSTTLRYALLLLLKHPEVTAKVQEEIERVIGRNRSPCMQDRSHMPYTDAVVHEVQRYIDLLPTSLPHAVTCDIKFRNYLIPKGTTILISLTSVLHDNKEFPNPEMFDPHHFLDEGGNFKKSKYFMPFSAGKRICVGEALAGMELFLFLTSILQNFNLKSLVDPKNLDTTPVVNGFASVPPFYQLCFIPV

## Cc1nc2ccc([N+](=O)[O-])cc2c(=O)n1Cc1ccc(Br)cc1
[1]
  IC50: 0.623 µM (active)
[2]
  IC50: 0.719 µM (active)

## COc1ccc2[nH]c3nc(SCc4nnc(-c5ccc(C)cc5)o4)nnc3c2c1
[3]
  IC50: 6.84 µM (active)

## O=C(NCc1cn(-c2ccccc2)nc1-c1ccccc1)c1cc([N+](=O)[O-])cc([N+](=O)[O-])c1
[4]
  EC50: 0.139 µM (active)
[5]
  EC50: < 0.1 µM (active)
[6]
  EC50: > 60 µM (not active)
[7]
  AC50: 2.82 µM (inconclusive)

## CCCCCCOc1ccc(CN2CCN(C)CC2)cc1
[4]
  EC50: 0.076 µM (active)
[5]
  EC50: < 0.1 µM (active)
[6]
  EC50: 4.32 µM (active)
[8]
  AC50: 4.04 µM (active)

## CCN(CC)CC(=O)Nc1cccc2c1C(=O)c1ccccc1C2=O
[9]
  AC50: 100 µM (inactive)

## COc1cc2c(C)nc3onc(-c4ccccc4)c3c2cc1OC
[1]
  IC50: 7.51 µM (active)
[2]
  IC50: 19.4 µM (active)

## Cc1ccc([N+](=O)[O-])cc1S(=O)(=O)NCC1COc2ccccc2O1 (stereo unspecified)
[1]
  IC50: 5.17 µM (active)
[2]
  IC50: 4.43 µM (active)

## Cc1c(-c2cc(Br)ccc2O)nc2cc3c(cc2c1C)OCO3
[9]
  AC50: 57.5 µM (active)

## Cc1ccccc1Cn1c(C)nc2ccc([N+](=O)[O-])cc2c1=O
[1]
  IC50: 9.84 µM (active)
[2]
  IC50: 7.08 µM (active)

## CSc1cccc(NC(=O)CN(c2ccccc2)S(=O)(=O)N(C)C)c1
[3]
  IC50: > 50 µM (not active)

## CCC(=O)OC1(C)C(=O)C=C2C=C(C3CC3)OC=C2C1=O (stereo unspecified)
[10]
  EC50: > 300 µM (not active)
[11]
  EC50: 30.4 µM (active)
[12]
  IC50: > 100 µM (active)

## COc1ccccc1CN1CC(C(=O)NCCN(C)CCc2ccccc2)CCC1=O (stereo unspecified)
[4]
  EC50: 0.061 µM (active)
[5]
  EC50: < 0.1 µM (active)
[6]
  EC50: > 60 µM (not active)

## O=[N+]([O-])c1ccc(/N=c2\ssnc2Cl)c2ccccc12
[13]
  IC50: > 100 µM (inactive)
[14]
  IC50: > 100 µM (inactive)

## COc1ccc([N+](=O)[O-])cc1C(=O)NC1CCN(Cc2ccccc2)CC1
[15]
  AC50: 2.3 µM (active)

## CN(C)c1ccc(/N=c2\ssnc2Cl)cc1
[13]
  IC50: 12.4 µM (active)
[14]
  IC50: > 100 µM (inactive)

## Cc1ccc2nc(-n3sc4ccccc4c3=O)sc2c1
[13]
  IC50: > 50 µM (inactive)
[14]
  IC50: > 100 µM (inactive)

## C[C@@H]1CCCCO[C@@H](CN(C)CC2CCCCC2)[C@@H](C)CN([C@H](C)CO)C(=O)c2cc(NS(=O)(=O)c3ccc(Cl)cc3)ccc2O1
[16]
  AC50: 2.18 µM (active)

## C[C@@H]1CN([C@@H](C)CO)C(=O)Cc2cc(NC(=O)Cn3cnnn3)ccc2O[C@H]1CN(C)Cc1ccc2c(c1)OCO2
[15]
  AC50: 10.5 µM (active)

## COCCNC(=O)C[C@H]1CC[C@@H]2[C@H](COc3ccc(NC(=O)Nc4cccc(F)c4)cc3C(=O)N2C)O1
[15]
  AC50: 6.86 µM (active)

## C[C@H](CO)N1C[C@H](C)[C@@H](CN(C)Cc2ccc(-c3ccccc3)cc2)Oc2c(NC(=O)c3ccc(-c4nccs4)cc3)cccc2C1=O
[16]
  AC50: 3.54 µM (active)
[17]
  AC50: 5.28 µM (active)

## C[C@H]1CN([C@@H](C)CO)C(=O)Cc2cc(NC(=O)Nc3ccc(C(F)(F)F)cc3)ccc2O[C@@H]1CN(C)Cc1ccc(C(F)(F)F)cc1
[16]
  AC50: 5.04 µM (active)

## C/C=C/c1ccc2c(c1)O[C@@H](CN(C)C(=O)Nc1ccc(F)cc1)[C@@H](C)CN([C@@H](C)CO)S2(=O)=O
[15]
  AC50: 4.65 µM (active)

## C[C@H](CO)N1C[C@H](C)[C@H](CN(C)Cc2ccccc2)Oc2ccc(NC(=O)Nc3ccc(C(F)(F)F)cc3)cc2C1=O
[16]
  AC50: 6.57 µM (active)
